This note sets out measurements from ChEMBL document CHEMBL2029250 (Bioorg Med Chem Lett, 2012).

Calls of active or inactive are those of the source. No cut-off for these calls is given here.

The target of test [1] is T1, Peroxisome proliferator-activated receptor alpha (Homo sapiens, UniProt Q07869).
T1 sequence (Q07869 whole entry): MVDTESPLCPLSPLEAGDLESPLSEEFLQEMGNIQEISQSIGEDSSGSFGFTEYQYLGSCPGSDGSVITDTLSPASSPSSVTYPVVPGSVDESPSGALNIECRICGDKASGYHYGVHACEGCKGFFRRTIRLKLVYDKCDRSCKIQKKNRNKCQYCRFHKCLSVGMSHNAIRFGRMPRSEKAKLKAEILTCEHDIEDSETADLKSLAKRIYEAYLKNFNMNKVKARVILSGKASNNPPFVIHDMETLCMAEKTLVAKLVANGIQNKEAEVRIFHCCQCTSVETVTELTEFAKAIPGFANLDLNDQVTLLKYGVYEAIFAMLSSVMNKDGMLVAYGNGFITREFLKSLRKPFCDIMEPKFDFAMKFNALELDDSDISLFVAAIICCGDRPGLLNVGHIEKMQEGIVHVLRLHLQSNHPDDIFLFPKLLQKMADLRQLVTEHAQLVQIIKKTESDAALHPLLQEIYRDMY
The test is described as follows: Transactivation of human PPARalpha expressed in african green monkey CV1 cells by luciferase reporter gene assay. The test is classed as cell-based, CV-1.

Test [2] deals with T2, Peroxisome proliferator-activated receptor gamma (Homo sapiens, UniProt P37231).
T2 sequence (P37231 whole entry): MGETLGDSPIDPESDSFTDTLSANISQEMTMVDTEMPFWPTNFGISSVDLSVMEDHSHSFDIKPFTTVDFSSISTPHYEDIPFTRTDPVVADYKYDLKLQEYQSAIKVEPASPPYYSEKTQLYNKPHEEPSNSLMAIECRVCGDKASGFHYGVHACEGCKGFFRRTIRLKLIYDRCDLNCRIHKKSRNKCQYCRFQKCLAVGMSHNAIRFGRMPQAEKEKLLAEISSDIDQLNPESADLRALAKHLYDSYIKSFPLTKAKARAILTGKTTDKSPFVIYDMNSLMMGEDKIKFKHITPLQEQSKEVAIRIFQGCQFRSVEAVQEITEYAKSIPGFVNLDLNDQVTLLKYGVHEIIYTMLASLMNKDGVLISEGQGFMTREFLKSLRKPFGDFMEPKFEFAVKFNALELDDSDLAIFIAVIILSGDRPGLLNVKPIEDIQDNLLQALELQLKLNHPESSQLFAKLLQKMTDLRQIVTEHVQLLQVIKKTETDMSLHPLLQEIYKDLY
The test is described as follows: Transactivation of human PPARgamma expressed in african green monkey CV1 cells by luciferase reporter gene assay. The test is classed as cell-based, CV-1.

For test [3], the target named is T1, Peroxisome proliferator-activated receptor alpha. As to the kind of experiment: Binding affinity to GST-tagged human PPARalpha by TR-FRET analysis. In general terms: Time-resolved FRET reads energy transfer from a long-lived donor to a nearby acceptor.
The target of test [4] is T2, Peroxisome proliferator-activated receptor gamma.
Test [5] concerns HepG2. The test is described as follows: Increase in CPT1 mRNA expression in human HepG2 cells at 10 uM. It counts as functional, cell-based.
In test [6] the test system is 3T3-L1. As to the kind of experiment: Induction of preadipocyte differentiation in mouse 3T3L1 cells assessed as […] in lipid droplet accumulation at 10 uM Oil Red O staining. It counts as functional, cell-based.
The target of test [7] is T3, Peroxisome proliferator-activated receptor delta (Homo sapiens, UniProt Q03181).
T3 sequence (Q03181 whole entry): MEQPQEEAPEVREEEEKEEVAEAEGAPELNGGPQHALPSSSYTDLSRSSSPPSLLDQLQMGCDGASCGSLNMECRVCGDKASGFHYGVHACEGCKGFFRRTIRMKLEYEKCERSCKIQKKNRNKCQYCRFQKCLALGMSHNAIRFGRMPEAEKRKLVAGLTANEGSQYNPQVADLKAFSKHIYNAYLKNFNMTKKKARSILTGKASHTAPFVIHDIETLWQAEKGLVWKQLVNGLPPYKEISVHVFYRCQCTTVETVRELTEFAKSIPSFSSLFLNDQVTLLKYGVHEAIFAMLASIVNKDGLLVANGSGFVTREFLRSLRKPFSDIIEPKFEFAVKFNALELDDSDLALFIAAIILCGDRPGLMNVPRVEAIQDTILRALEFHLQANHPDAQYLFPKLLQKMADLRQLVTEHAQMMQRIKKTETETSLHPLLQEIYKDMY
To be noted: cv-1.

The target of test [8] is T4, Peroxisome proliferator-activated receptor alpha (Homo sapiens) (UniProt Q07869).
T4 sequence (whole entry): T1 sequence (Q07869 whole entry)
As to the kind of experiment: Transactivation of human PPARalpha expressed in african green monkey CV1 cells at 30 uM by luciferase reporter gene assay relative to Wy14643. It counts as cell-based. To be noted: CV-1. (A reporter such as luciferase makes a cellular process visible.)

Test [9] concerns the target T5, Peroxisome proliferator-activated receptor gamma (Homo sapiens) (UniProt P37231).
T5 sequence (whole entry): T2 sequence (P37231 whole entry)
As to the kind of experiment: Transactivation of human PPARgamma expressed in african green monkey CV1 cells at 30 uM by luciferase reporter gene assay relative to […]. The test is classed as cell-based. To be noted: CV-1.

The target of test [10] is T6, Peroxisome proliferator-activated receptor delta (Homo sapiens) (UniProt Q03181).
T6 sequence (whole entry): T3 sequence (Q03181 whole entry)
As to conditions: CV-1, 30 uM.

Test [11] relates to 3T3-L1. As to the kind of experiment: Induction of preadipocyte differentiation in mouse 3T3L1 cells assessed as increase in lipid droplet accumulation at 10 uM Oil Red O staining relative to control. It counts as functional, cell-based.
Test [12] relates to HepG2. As to the kind of experiment: Increase in ACS mRNA expression in human HepG2 cells at 10 uM. It counts as functional, cell-based.

One may read the EC50 as the concentration giving half of the maximal effect. What is called IC50 is the concentration needed to halve the response being measured. Turning to `CC(C)=CCC/C(C)=C/Cc1c(O)cc(/C=C/c2cccc(C(F)(F)F)c2)cc1O`, the EC50 in test [1] was 4 µM; in [2], 5 µM; in test [7], “Not Active”. Moreover, the concentration for half-maximal inhibition (IC50) in test [3] stood at 1.21 µM; in [4] it was 0.53 µM. Besides, the outcome in the test with HepG2 [5] and with 3T3-L1 [6] was Active.
Turning to `CC(C)=CCC/C(C)=C/Cc1c(O)cc(/C=C/c2ccc(C=O)cc2)cc1O`, the Emax was determined as 35% in test [8] and 27% in test [9]. Also, the IC50 in test [3] amounted to 2.82 µM; in [4], 0.89 µM. In addition, the EC50 result in [7] is recorded as “Not Active”.
As for `CC(C)=CCC/C(C)=C/Cc1c(O)cc(/C=C/c2ccsc2)cc1O`, the 50% effective concentration (EC50) in test [1] was 14 µM; in [2], 6 µM; in [7] it was “Not Active”. Further, the figures for the Emax in test [8] and in test [9] were 56% and 68%, respectively. The concentration for half-maximal inhibition (IC50) in [3] is 5.41 µM; in test [4], 1.01 µM.
Turning to `CC(C)=CCC/C(C)=C/Cc1c(O)cc(/C=C/c2ccc(F)cc2)cc1O`, the EC50 in test [1] was 6 µM; in [2], 11 µM; in [7], “Not Active”. In addition, the Emax amounted to 88% in [8], 68% in test [9] and 17% in [10]. The IC50 is 2.48 µM in [3] and 2.32 µM in test [4].
In the case of `CC(C)=CCC/C(C)=C/Cc1c(O)cc(/C=C/c2cc(F)cc(F)c2)cc1O`, the EC50 in test [2] is 7 µM; in test [7], “Not Active”. The concentration for half-maximal inhibition (IC50) is 2.08 µM in test [3] and 0.9 µM in test [4].
In the case of `CC(C)=CCC/C(C)=C/Cc1c(O)cc(/C=C/c2ccc(O)cc2)cc1O`, the half-maximal effective concentration (EC50) is 8 µM in test [1], 8 µM in test [2] and “Not Active” in [7]. The IC50 in test [3] amounted to 1.21 µM; in test [4], 0.11 µM.
In the case of `CC(C)=CCC/C(C)=C/Cc1c(O)cc(/C=C/c2ccccc2)cc1O` [AMORPHASTILBOL], the EC50 in test [1] was 12 µM; in test [2], 5 µM; in test [7] it was “Not Active”. The figures for the Emax in test [8] and in [9] were 66% and 83%, respectively. The results for the IC50 in test [3] and in [4] were 1.52 µM and 0.85 µM, respectively. The result with 3T3-L1 [11], in the test with HepG2 [5] and in the test on HepG2 [12] was Active.
Consider `CC(C)=CCC/C(C)=C/Cc1c(O)cc(/C=C/c2ccoc2)cc1O`, for which the EC50 in [1] was 6 µM; in test [2], 5 µM; in test [7] it was “Not Active”. In addition, the Emax in test [8] turned out to be 87%; in test [9], 98%; in test [10], 34%. Besides, the IC50 in [3] amounted to 2.03 µM; in test [4] it was 0.65 µM. Also, the outcome in the test with HepG2 [12] and in the test with 3T3-L1 [6] was Active.
Regarding `CC(C)=CCC/C(C)=C/Cc1c(O)cc(/C=C/c2ccc(C#N)cc2)cc1O`, the EC50 in test [1] was 20 µM; in test [7], “Not Active”. Further, the Emax in test [8] turned out to be 54%; in test [9] it was 41%. Besides, the IC50 in test [3] came out at 3.47 µM; in test [4] it was 1.2 µM.
Turning to `CC(C)=CCC/C(C)=C/Cc1c(O)cc(/C=C/c2ccc(C(F)(F)F)cc2)cc1O`, the IC50 stood at 3.33 µM in test [3] and 8.1 µM in test [4]. The EC50 entry in [7] is on record as “Not Active”.
`CC(C)=CCC/C(C)=C/Cc1c(O)cc(/C=C/c2ccc(Cl)cc2)cc1O`: the IC50 in test [3] amounted to 7.47 µM; in test [4], 0.54 µM. For the same compound, the EC50 entry in [7] is recorded as “Not Active”.
`COc1ccc(/C=C/c2cc(O)c(C/C=C(\C)CCC=C(C)C)c(O)c2)cc1`: the EC50 in test [1] was 19 µM; in test [2], 14 µM; in test [7] it was “Not Active”. For the same compound, the results for the Emax in test [8] and in test [9] were 63% and 66%, respectively. Besides, the figures for the half-inhibitory concentration (IC50) in test [3] and in test [4] were 2.5 µM and 0.63 µM, respectively.
